The nature of the data set: physchem. The following applies: buffer, pH 7.4, logD.

Data on 87 molecules can be found in ChEMBL document CHEMBL4382257, “Identification and Profiling of Hydantoins-A Novel Class of Potent Antimycobacterial DprE1 Inhibitors” (J Med Chem, 2018).

Each structure is given as a SMILES string.

Consider `CC1(c2ccc(OC(F)F)cc2)NC(=O)N(CC(=O)c2ccc3c(c2)OCO3)C1=O` (configuration not stated), for which the chromatographic logD stood at 4.9.

Regarding `COc1ccc(-c2cn(CC(=O)c3ccc(F)cc3F)cn2)cc1`, the chromatographic logD came to 4.68.

In the case of `CC1(c2ccc(OC(F)(F)F)cc2)NC(=O)N(CC(=O)c2ccc(F)cc2F)C1=O` (configuration not stated), the chromatographic logD came out at 6.05.

Consider `CCOc1ccc(C2(C)NC(=O)N(CC(=O)c3ccc(F)cc3F)C2=O)cc1` (configuration not stated), for which the chromatographic logD was determined as 5.43.

Molecule `COc1ccc(C2(C)NC(=O)N(CC(=O)c3ccc(F)cc3F)C2=O)c(F)c1` (configuration not stated) registered a chromatographic logD of 5.05.

Regarding `CC1(c2ccc(OC(F)F)cc2)NC(=O)N(CC(=O)c2ccc(Cl)s2)C1=O` (configuration not stated), the chromatographic logD is 5.49.

The molecule `CCC1(c2ccc(C#N)cc2)NC(=O)N(CC(=O)c2ccc(F)cc2F)C1=O` (configuration not stated) registered a chromatographic logD of 4.99.

In turn, `CC1(c2ccc(OC(F)F)cc2)NC(=O)N(CC(=O)c2cccs2)C1=O` (configuration not stated) had a chromatographic logD of 4.59.

The molecule `COc1cc(C2(C)NC(=O)N(CC(=O)c3ccc(F)cc3F)C2=O)cc(OC)c1OC` (configuration not stated) showed a chromatographic logD of 4.47. The chromatographic logD values of the last two molecules are within 0.2 log units of each other.

Molecule `COc1ccc(C2(C)NC(=O)N(CCC(=O)c3ccc(F)cc3)C2=O)cc1` (configuration not stated) gave a chromatographic logD of 4.6.

As for `Cc1ccc(C(=O)CN2C(=O)NC(C)(c3ccc(OC(F)F)cc3)C2=O)s1` (configuration not stated), the chromatographic logD was 5.06.

Molecule `CC1(c2ccc(N)cc2)NC(=O)N(CC(=O)c2ccc(F)cc2F)C1=O` (configuration not stated) had a chromatographic logD of 3.38.

With `CC1(c2ccc(Cl)cc2)NC(=O)N(CC(=O)c2ccc(F)cc2)C1=O` (configuration not stated), the chromatographic logD is 5.28.

For `COc1ccc(C(=O)CN2C(=O)NC(C)(c3ccc(OC(F)F)cc3)C2=O)cc1F` (configuration not stated), the chromatographic logD amounted to 5.03.

`CC1(c2ccc(C#N)cc2)NC(=O)N(CC(=O)C2CCCCC2)C1=O` (configuration not stated) displayed a chromatographic logD of 5.07.

`CC1(c2ccc(OC(F)F)cc2)NC(=O)N(CC(=O)c2nccs2)C1=O` (configuration not stated) registered a chromatographic logD of 4.45.

Turning to `Cc1cc(C(=O)CN2C(=O)NC(C)(c3ccc(OC(F)F)cc3)C2=O)c(C)[nH]1` (configuration not stated), the chromatographic logD is 4.12.

`CC1(c2ccc(OC(F)F)cc2)NC(=O)N(CC(=O)c2ccccc2)C1=O` (configuration not stated) had a chromatographic logD of 4.97.

As to `CC1(c2ccc(OC(F)F)cc2)NC(=O)N(CC(=O)N2CCCC2)C1=O` (configuration not stated), the chromatographic logD turned out to be 3.37.

On to `CC1(c2ccc(C#N)cc2)NC(=O)N(CC2(c3ccc(F)cc3F)COC2)C1=O` (configuration not stated), for which the chromatographic logD came to 4.21.

Regarding `CC1(c2ccc(Br)nc2)NC(=O)N(CC(=O)c2ccc(F)cc2F)C1=O` (configuration not stated), the chromatographic logD turned out to be 4.67.

The molecule `CC1(c2ccc(C(F)(F)F)cc2)NC(=O)N(CC(=O)c2ccc(F)cc2F)C1=O` (configuration not stated) came in with a chromatographic logD of 6.01.

`COc1ccccc1C(=O)CN1C(=O)NC(C)(c2ccc(C#N)cc2)C1=O` (configuration not stated) yielded a chromatographic logD of 4.45.

Turning to `CC1(c2ccc(OC(F)F)cc2)NC(=O)N(CC(=O)c2cccc(F)c2)C1=O` (configuration not stated), the chromatographic logD came to 5.13.

Molecule `Cc1ccc(C)c(C(=O)CN2C(=O)NC(C)(c3ccc(OC(F)F)cc3)C2=O)c1` (configuration not stated) registered a chromatographic logD of 5.97.

`CC1(c2ccc(OC(F)F)cc2)NC(=O)N(CC(=O)c2ccccn2)C1=O` (configuration not stated) came in with a chromatographic logD of 4.35.

The molecule `CC1(c2ccc(OC(F)F)cc2)NC(=O)N(CC(=O)c2ccncc2)C1=O` (configuration not stated) came in with a chromatographic logD of 3.52.

Take `COc1ccc(C2(C)NC(=O)N(CC(=O)c3ccc(F)cc3)C2=O)cc1` (configuration not stated): the chromatographic logD was determined as 4.53.

As for `CC1(c2ccc(C#N)cc2)NC(=O)N(CC(=O)c2ncc(F)cc2F)C1=O` (configuration not stated), the chromatographic logD was 3.89.

As for `CC1(c2ccc(Cl)cc2)NC(=O)N(CCC(=O)c2ccc(F)cc2)C1=O` (configuration not stated), the chromatographic logD was found to be 5.35.

The molecule `CC1(c2ccc(-n3ccnc3)cc2)NC(=O)N(CC(=O)c2ccc(F)cc2F)C1=O` (configuration not stated) returned a chromatographic logD of 3.84.

With `COc1ccc(C2(C)NC(=O)N(Cc3ccc(F)cc3)C2=O)cc1` (configuration not stated), the chromatographic logD came to 4.72.

`CC1(c2ccc(Br)cc2F)NC(=O)N(CC(=O)c2ccc(F)cc2F)C1=O` (configuration not stated): the chromatographic logD amounted to 5.8.

`CC1(c2ccc(C#N)s2)NC(=O)N(CC(=O)c2ccc(F)cc2F)C1=O` (configuration not stated) came in with a chromatographic logD of 4.67.

The molecule `CC1(c2ccc(Cl)cc2)NC(=O)N(CC(=O)c2ccc(F)cc2F)C1=O` (configuration not stated) had a chromatographic logD of 5.54.

`CC1(c2ccc(C#N)cc2)NC(=O)N(CCc2ccc(F)cc2)C1=O` (configuration not stated) registered a chromatographic logD of 4.56.

As to `COc1ccc(C2(C)NC(=O)N(CC(O)c3ccc(F)cc3F)C2=O)cc1` (configuration not stated), the chromatographic logD was determined as 3.96.

Turning to `COc1ccc(C2(C)NC(=O)N(CCc3ccc(F)cc3)C2=O)cc1` (configuration not stated), the chromatographic logD is 4.84.

Turning to `O=C(CN1C(=O)NC2(CCc3cc(Br)ccc32)C1=O)c1ccc(F)cc1F` (configuration not stated), the chromatographic logD was 5.71.

`CC1(c2cccc(Br)c2)NC(=O)N(CC(=O)c2ccc(F)cc2F)C1=O` (configuration not stated) returned a chromatographic logD of 5.72.

Molecule `CC1(c2ccc(C#N)cc2)NC(=O)N(CC(=O)C23CC4CC(CC(C4)C2)C3)C1=O` (configuration not stated) returned a chromatographic logD of 6.31.

Regarding `CC1(c2ccc(C#N)cc2)NC(=O)N(CC(=O)c2cccc(C(F)(F)F)c2)C1=O` (configuration not stated), the chromatographic logD was 5.3.

`COc1ccc(F)cc1C(=O)CN1C(=O)NC(C)(c2ccc(OC(F)F)cc2)C1=O` (configuration not stated): the chromatographic logD was 5.42.

In turn, `CCCC1(c2ccc(Br)cc2)NC(=O)N(CC(=O)c2ccc(F)cc2F)C1=O` (configuration not stated) came in with a chromatographic logD of 6.64.

In turn, `CC(C)C1(c2ccc(Br)cc2)NC(=O)N(CC(=O)c2ccc(F)cc2F)C1=O` (configuration not stated) returned a chromatographic logD of 6.57.

`CC1(c2ccc(Br)cn2)NC(=O)N(CC(=O)c2ccc(F)cc2F)C1=O` (configuration not stated): the chromatographic logD was found to be 4.87.

Molecule `CC1(c2ccc(C#N)cc2)NC(=O)N(Cc2ccc(F)cc2)C1=O` (configuration not stated) registered a chromatographic logD of 4.5.

With `CC1(c2ccc(Br)cc2)CC(=O)N(CC(=O)c2ccc(F)cc2F)C1=O` (configuration not stated), the chromatographic logD came out at 6.86.

With `COc1cccc(C(=O)CN2C(=O)NC(C)(c3ccc(C#N)cc3)C2=O)c1` (configuration not stated), the chromatographic logD is 4.39.

As for `COc1cccc(C2(C)NC(=O)N(CC(=O)c3ccc(F)cc3F)C2=O)c1` (configuration not stated), the chromatographic logD was found to be 4.96.

`CC1(c2ccncc2)NC(=O)N(CC(=O)c2ccc(F)cc2F)C1=O` (configuration not stated) came in with a chromatographic logD of 3.04.

In turn, `COc1ccc(C2(C)NC(=O)N(CC(=O)c3ccc(F)cc3F)C2=O)cc1F` (configuration not stated) had a chromatographic logD of 4.84.

In the case of `CC1(c2ccc(C#N)cc2)NC(=O)N(CC(=O)c2nccs2)C1=O` (configuration not stated), the chromatographic logD turned out to be 3.42.

As to `CN1C(=O)N(CC(=O)c2ccc(F)cc2F)C(=O)C1(C)c1ccc(C#N)cc1` (configuration not stated), the chromatographic logD was 5.22.

In the case of `CC1(c2ccc(Cl)cc2)NC(=O)N(C(=O)c2ccc(F)cc2F)C1=O` (configuration not stated), the chromatographic logD was found to be 3.72.

Regarding `CC1(c2ccc(C#N)cc2)NC(=O)N(CCC(=O)c2ccc(F)cc2)C1=O` (configuration not stated), the chromatographic logD stood at 4.4.

With `C[C@@]1(c2ccc(C#N)cc2)NC(=O)N(CC(=O)c2ccc(F)cc2F)C1=O`, the chromatographic logD stood at 4.51.

The molecule `N#Cc1ccc(-c2cn(CC(=O)c3ccc(F)cc3F)cn2)cc1` returned a chromatographic logD of 4.58.

Regarding `CC1(c2ccc(OC(F)F)cc2)NC(=O)N(CC(=O)N2CCCCC2)C1=O` (configuration not stated), the chromatographic logD worked out at 4.03.

In turn, `COc1ccc(C(=O)CN2C(=O)NC(C)(c3ccc(OC(F)F)cc3)C2=O)cc1` (configuration not stated) returned a chromatographic logD of 4.92.

`CC1(c2ccc(OC(F)F)cc2)NC(=O)N(CC(=O)c2ccccc2F)C1=O` (configuration not stated): the chromatographic logD stood at 5.23.

`CC(=O)N1C(=O)N(CC(=O)c2ccc(F)cc2F)C(=O)C1(C)c1ccc(C#N)cc1` (configuration not stated) registered a chromatographic logD of 5.77.

`CC1(c2ccc(C#N)cc2)NC(=O)N(CC(=O)c2cccc([N+](=O)[O-])c2)C1=O` (configuration not stated) gave a chromatographic logD of 4.25.

`CC1(c2cccc(NS(C)(=O)=O)c2)NC(=O)N(CC(=O)c2ccc(F)cc2F)C1=O` (configuration not stated) showed a chromatographic logD of 3.67.

Consider `CC1(c2ccc(Cl)cc2)NC(=O)N(Cc2ccc(F)cc2)C1=O` (configuration not stated), for which the chromatographic logD came out at 5.59.

Molecule `N#Cc1ccc(-c2cnn(CC(=O)c3ccc(F)cc3F)c2)cc1` displayed a chromatographic logD of 5.17.

The molecule `CC1(c2ccc(C#N)cn2)NC(=O)N(CC(=O)c2ccc(F)cc2F)C1=O` (configuration not stated) registered a chromatographic logD of 3.97.

Molecule `COc1ccc(C2(C)NC(=O)N(CC(=O)c3ccc(F)cc3F)C2=O)cc1` (configuration not stated) yielded a chromatographic logD of 4.78.

Molecule `CC1(c2ccc(N3CCOCC3)cc2)NC(=O)N(CC(=O)c2ccc(F)cc2F)C1=O` (configuration not stated) came in with a chromatographic logD of 4.45.

As to `COc1ccc(C(=O)CN2C(=O)NC(C)(c3ccc(C#N)cc3)C2=O)cc1` (configuration not stated), the chromatographic logD was 4.25.

The molecule `CC1(c2ccc(OC(F)F)cc2)NC(=O)N(CC(=O)c2ccc[nH]2)C1=O` (configuration not stated) yielded a chromatographic logD of 3.91.

Molecule `CC1(c2ccc(C#N)cc2)NC(=O)N(CC(=O)c2ccc(F)cc2)C1=O` (configuration not stated) yielded a chromatographic logD of 4.26.

Consider `CC(=O)Nc1ccc(C2(C)NC(=O)N(CC(=O)c3ccc(F)cc3F)C2=O)cc1` (configuration not stated), for which the chromatographic logD was determined as 3.28.

`CC1(c2ccc(Br)cc2)CCN(CC(=O)c2ccc(F)cc2F)C1=O` (configuration not stated) had a chromatographic logD of 6.74.

`O=C(CN1C(=O)NC(c2ccc(Br)cc2)(C(F)(F)F)C1=O)c1ccc(F)cc1F` (configuration not stated): the chromatographic logD was found to be 6.8.

In turn, `CC1(c2ccc(C#N)nc2)NC(=O)N(CC(=O)c2ccc(F)cc2F)C1=O` (configuration not stated) had a chromatographic logD of 3.94.

`CC1(c2ccc(C#N)cc2)NC(=O)N(CC(F)(F)c2ccc(F)cc2F)C1=O` (configuration not stated) yielded a chromatographic logD of 5.1.

Molecule `COc1cc(C2(C)NC(=O)N(CC(=O)c3ccc(F)cc3F)C2=O)ccc1OC(F)F` (configuration not stated) gave a chromatographic logD of 5.5.

`COc1ccc(C2(C)NC(=O)N(C(=O)c3ccc(F)cc3F)C2=O)cc1` (configuration not stated): the chromatographic logD worked out at 3.43.

Take `CCC1(c2ccc(Br)cc2)NC(=O)N(CC(=O)c2ccc(F)cc2F)C1=O` (configuration not stated): the chromatographic logD amounted to 6.17.

`CC1(c2ccc(C#N)cc2)NC(=O)N(C2Cc3cc(F)cc(F)c3C2=O)C1=O` (configuration not stated) registered a chromatographic logD of 4.33.

Consider `CC1(c2ccc(OC(F)F)cc2)NC(=O)N(CC(=O)c2ccc(F)cc2)C1=O` (configuration not stated), for which the chromatographic logD was determined as 5.08.

`CC1(c2cccc(C#N)c2)NC(=O)N(CC(=O)c2ccc(F)cc2F)C1=O` (configuration not stated): the chromatographic logD amounted to 4.51.

With `Cc1ccc(C2(C)NC(=O)N(CC(=O)c3ccc(F)cc3F)C2=O)cc1` (configuration not stated), the chromatographic logD was 5.41.

Take `C[C@]1(c2ccc(C#N)cc2)NC(=O)N(CC(=O)c2ccc(F)cc2F)C1=O`: the chromatographic logD stood at 4.51.

The molecule `CC1(c2ccc(Cl)cc2)NC(=O)N(CCc2ccc(F)cc2)C1=O` (configuration not stated) gave a chromatographic logD of 5.68.

As for `CC1(c2ccc(OC(F)F)cc2)NC(=O)N(CC(=O)c2cccnc2)C1=O` (configuration not stated), the chromatographic logD was determined as 3.54.
